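Growth conditions: 96-well plates. Treatment: test compound, 48 hours, 5 concentrations. Analysis: linear interpolation between bracketing concentrations; unreached endpoints set to highest concentration. Here, GI50 denotes the concentration required for 50% inhibition of growth.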 Active and inactive are the calls of the source. Rule as the data show it: active = GI50 up to about 1.1 µM and inactive = higher.
What was measured:
Experiment in all cases: growth of human tumour cells (NCI), 48 h
UACC-62 = test system: UACC-62
OVCAR-8 = test system: OVCAR-8
TK-10 = test system: TK-10
PC-3 = test system: PC-3
U-251 = test system: U-251
HCC 2998 = test system: HCC 2998
OVCAR-5 = test system: OVCAR-5
IGROV-1 = test system: IGROV-1
HCT-15 = test system: HCT-15
SF-295 = test system: SF-295
SK-MEL-28 = test system: SK-MEL-28
UO-31 = test system: UO-31
DU-145 = test system: DU-145
RPMI-8226 = test system: RPMI-8226
K562 = test system: K562
SR = test system: SR
CCRF-CEM = test system: CCRF-CEM
LOX IMVI = test system: LOX IMVI
UACC-257 = test system: UACC-257
OVCAR-4 = test system: OVCAR-4

SMILES | GI50 (UACC-62) | GI50 (OVCAR-8) | GI50 (TK-10) | GI50 (PC-3) | GI50 (U-251) | GI50 (HCC 2998) | GI50 (OVCAR-5) | GI50 (IGROV-1) | GI50 (HCT-15) [µM] | GI50 (SF-295) | GI50 (SK-MEL-28) | GI50 (UO-31) | GI50 (DU-145) | GI50 (RPMI-8226) | GI50 (K562) | GI50 (SR) | GI50 (CCRF-CEM) | GI50 (LOX IMVI) | GI50 (UACC-257) | GI50 (OVCAR-4)
C=C1C(=O)OC2/C=C(\C)C(=O)CC3OC(C)(C)OC3(C)CC(OC(=O)/C(C)=C/C)C12 (stereo not given) | 9.98 µM (inactive) | 20.6 µM (inactive) | 13.2 µM (inactive) | 25.8 µM (inactive) | 27.5 µM (inactive) | 15.9 µM (inactive) | 20.4 µM (inactive) | 14.4 µM (inactive) | 4.49 | 42 µM (inactive) | 11.9 µM (inactive) | 13.9 µM (inactive) | 19.4 µM (inactive) | 3.66 µM (inactive) | 4.05 µM (inactive) | 3.05 µM (inactive) | 0.897 µM (active) | 12.2 µM (inactive) | 13.7 µM (inactive) | 17.6 µM (inactive)
CCOC(=O)c1c(C)n(Cc2ccccc2)c(=O)c2ccccc2c(=O)c2c(=O)ccc(=O)c1=2 | > 100 µM (inactive) | > 100 µM (inactive) | 29.1 µM (inactive) | 39.7 µM (inactive) | > 100 µM (inactive) | 38.5 µM (inactive) | > 100 µM (inactive) | 22.3 µM (inactive) | 34.8 | > 100 µM (inactive) | 55.7 µM (inactive) | 17.9 µM (inactive) | > 100 µM (inactive) | 31.2 µM (inactive) | 43.3 µM (inactive) | 30.8 µM (inactive) | 42.1 µM (inactive) | 25.2 µM (inactive) | > 100 µM (inactive) | 45 µM (inactive)
CC1C(=O)C(C)C(c2ccccc2)N(N=O)C1c1ccccc1 (stereo not given) | > 475 µM (inactive) | > 91.6 µM (inactive) | 207 µM (inactive) | 152 µM (inactive) | 60.1 µM (inactive) | > 100 µM (inactive) | > 527 µM (inactive) | > 72.9 µM (inactive) | > 100 | 48.8 µM (inactive) | > 409 µM (inactive) | > 21.1 µM (inactive) | 173 µM (inactive) | > 724 µM (inactive) | > 883 µM (inactive) | > 439 µM (inactive) | > 662 µM (inactive) | > 533 µM (inactive) | > 548 µM (inactive) | > 65.9 µM (inactive)
CCc1cccc(CC)c1NC(=S)NC(=O)c1ccc(Br)cc1 | 19.7 µM (inactive) | 54.5 µM (inactive) | 25.3 µM (inactive) | 24.3 µM (inactive) | 40.1 µM (inactive) | 33.2 µM (inactive) | > 50.4 µM (inactive) | 27.9 µM (inactive) | 33.7 | > 53 µM (inactive) | 55.1 µM (inactive) | 26.3 µM (inactive) | 75.7 µM (inactive) | 33.1 µM (inactive) | 40.7 µM (inactive) | 20.3 µM (inactive) | 17.7 µM (inactive) | > 39.4 µM (inactive) | 32.2 µM (inactive) | 7.48 µM (inactive)
CC(CN(C)C)C(O)(c1ccccc1)c1ccccc1 (stereo not given) | > 100 µM (inactive) | > 100 µM (inactive) | > 100 µM (inactive) | > 100 µM (inactive) | > 100 µM (inactive) | 27.2 µM (inactive) | > 100 µM (inactive) | > 100 µM (inactive) | > 100 | > 100 µM (inactive) | > 100 µM (inactive) | > 100 µM (inactive) | > 100 µM (inactive) | > 100 µM (inactive) | > 100 µM (inactive) | > 100 µM (inactive) | > 100 µM (inactive) | > 100 µM (inactive) | > 100 µM (inactive) | > 100 µM (inactive)
O=C1c2ccccc2C(=O)c2c(OCC3CO3)ccc(OCC3CO3)c21 (stereo not given) | 2.1 µM (inactive) | 1.48 µM (inactive) | 18.8 µM (inactive) | 4.42 µM (inactive) | 2.92 µM (inactive) | 16.1 µM (inactive) | 10.5 µM (inactive) | 3.54 µM (inactive) | 1.74 | 2.28 µM (inactive) | 5.47 µM (inactive) | 2.94 µM (inactive) | 3.18 µM (inactive) | 6 µM (inactive) | 0.982 µM (active) | 0.113 µM (active) | < 0.0167 µM (active) | 0.0386 µM (active) | 6.04 µM (inactive) | 6.52 µM (inactive)
CC(=O)N(CN1C(=O)CCC1C(=O)O)c1ccccc1 (stereo not given) | > 51.9 µM (inactive) | > 52.4 µM (inactive) | > 53.5 µM (inactive) | > 55.8 µM (inactive) | > 100 µM (inactive) | > 100 µM (inactive) | > 55.6 µM (inactive) | > 50.4 µM (inactive) | > 100 | > 52.6 µM (inactive) | > 100 µM (inactive) | > 56.9 µM (inactive) | > 61.4 µM (inactive) | > 55.2 µM (inactive) | > 53 µM (inactive) | > 100 µM (inactive) | > 54.2 µM (inactive) | > 56.9 µM (inactive) | > 54.2 µM (inactive) | > 100 µM (inactive)
CC1(C)CCC[C@@]2(C)C1C(=O)[C@@H]1O[C@]1(C)[C@@H]2CO (stereo not given in full) | 37.2 µM (inactive) | 27.3 µM (inactive) | 80 µM (inactive) | 35.4 µM (inactive) | 14.8 µM (inactive) | 20.4 µM (inactive) | > 100 µM (inactive) | 45.8 µM (inactive) | 38 | 18.2 µM (inactive) | 13.7 µM (inactive) | 53.7 µM (inactive) | 38.5 µM (inactive) | 15.2 µM (inactive) | 27.3 µM (inactive) | 0.587 µM (active) | 11.4 µM (inactive) | 19.8 µM (inactive) | 43.8 µM (inactive) | 24.4 µM (inactive)
N#CC(C#N)=C(N)/C(C#N)=C/c1ccc(O)c(O)c1 | 49 µM (inactive) | 40.5 µM (inactive) | > 100 µM (inactive) | 37.7 µM (inactive) | > 89.5 µM (inactive) | > 100 µM (inactive) | > 58.3 µM (inactive) | > 55.1 µM (inactive) | 44.5 | > 20.4 µM (inactive) | > 100 µM (inactive) | 37.2 µM (inactive) | > 100 µM (inactive) | 71.3 µM (inactive) | 48.8 µM (inactive) | 29.3 µM (inactive) | 19.8 µM (inactive) | 52.8 µM (inactive) | > 95.5 µM (inactive) | 44.8 µM (inactive)
O=C1N[C@@H](c2c[nH]c3ccc(Br)cc23)C(=O)N[C@H]1c1c[nH]c2ccc(Br)cc12 | 7.26 µM (inactive) | 11.4 µM (inactive) | 4.06 µM (inactive) | 3.6 µM (inactive) | 9.35 µM (inactive) | 3.61 µM (inactive) | 13.9 µM (inactive) | 10.9 µM (inactive) | 14.9 | 11.9 µM (inactive) | 15.1 µM (inactive) | 16.3 µM (inactive) | 13.8 µM (inactive) | 7.46 µM (inactive) | 4.47 µM (inactive) | 4.72 µM (inactive) | 4.11 µM (inactive) | 6.14 µM (inactive) | 12 µM (inactive) | 5.73 µM (inactive)
O=C/C=C/c1ccco1 | > 100 µM (inactive) | > 100 µM (inactive) | > 100 µM (inactive) | > 100 µM (inactive) | 96.8 µM (inactive) | > 100 µM (inactive) | > 100 µM (inactive) | > 100 µM (inactive) | > 100 | 61.8 µM (inactive) | > 100 µM (inactive) | > 100 µM (inactive) | > 100 µM (inactive) | > 100 µM (inactive) | > 100 µM (inactive) | 31.3 µM (inactive) | 9.48 µM (inactive) | > 100 µM (inactive) | > 100 µM (inactive) | > 100 µM (inactive)
O=C1C[C@H]2[C@@H](O1)[C@@H](O)CN1C(=O)c3ccccc3[C@H]21 | > 100 µM (inactive) | > 100 µM (inactive) | > 100 µM (inactive) | > 100 µM (inactive) | > 100 µM (inactive) | > 100 µM (inactive) | > 100 µM (inactive) | > 100 µM (inactive) | > 100 | > 100 µM (inactive) | > 100 µM (inactive) | > 100 µM (inactive) | > 100 µM (inactive) | > 100 µM (inactive) | > 100 µM (inactive) | > 100 µM (inactive) | > 100 µM (inactive) | > 100 µM (inactive) | > 100 µM (inactive) | > 100 µM (inactive)
COc1c(C=O)c2c(c(OC)c1OC)-c1ccc(OC)c(=O)cc1[C@@H](NC(C)=O)CC2 | 0.0412 µM (active) | 0.0444 µM (active) | 3.83 µM (inactive) | 0.0375 µM (active) | 0.0367 µM (active) | 0.0637 µM (active) | 3.78 µM (inactive) | 0.0461 µM (active) | 0.849 | 0.185 µM (active) | 4.08 µM (inactive) | 11.5 µM (inactive) | 0.415 µM (active) | < 0.01 µM (active) | < 0.0126 µM (active) | < 0.01 µM (active) | < 0.0128 µM (active) | 0.015 µM (active) | 0.0826 µM (active) | 38.9 µM (inactive)
COC(=O)NC(Cc1ccccc1)NC(=O)OC(C)(C)C (stereo not given) | > 100 µM (inactive) | > 100 µM (inactive) | > 100 µM (inactive) | > 100 µM (inactive) | > 100 µM (inactive) | > 100 µM (inactive) | > 100 µM (inactive) | > 100 µM (inactive) | > 100 | > 100 µM (inactive) | > 100 µM (inactive) | > 100 µM (inactive) | > 100 µM (inactive) | > 100 µM (inactive) | > 100 µM (inactive) | > 100 µM (inactive) | > 100 µM (inactive) | > 100 µM (inactive) | > 100 µM (inactive) | > 100 µM (inactive)

Reference: ChEMBL document CHEMBL1201862, “PubChem BioAssay data set” (2004)
